Our source for the IC50 values is BindingDB's records for doi:10.1074/jbc.M110.206193 (Takeda Pharmaceutical, 2011).

One may read the IC50 as the concentration that gives 50% inhibition. A higher IC50 goes with a need for much substance.

The target in test [1] is Epidermal growth factor receptor (Homo sapiens, UniProt P00533). Briefly: Enzyme Assay. As to conditions: pH 7.5. On the procedure:
(§1) The EGFR, HER2 and HER4 kinase assay were performed using radiolabeled [gamma-32P] ATP from GE Healthcare.

Test [2] concerns the target Receptor tyrosine-protein kinase erbB-4 (Homo sapiens, UniProt Q15303). Briefly: Enzyme Assay. Particulars: pH 7.5. On the procedure: as §1

Chain of Receptor tyrosine-protein kinase erbB-4 (Q15303 whole entry): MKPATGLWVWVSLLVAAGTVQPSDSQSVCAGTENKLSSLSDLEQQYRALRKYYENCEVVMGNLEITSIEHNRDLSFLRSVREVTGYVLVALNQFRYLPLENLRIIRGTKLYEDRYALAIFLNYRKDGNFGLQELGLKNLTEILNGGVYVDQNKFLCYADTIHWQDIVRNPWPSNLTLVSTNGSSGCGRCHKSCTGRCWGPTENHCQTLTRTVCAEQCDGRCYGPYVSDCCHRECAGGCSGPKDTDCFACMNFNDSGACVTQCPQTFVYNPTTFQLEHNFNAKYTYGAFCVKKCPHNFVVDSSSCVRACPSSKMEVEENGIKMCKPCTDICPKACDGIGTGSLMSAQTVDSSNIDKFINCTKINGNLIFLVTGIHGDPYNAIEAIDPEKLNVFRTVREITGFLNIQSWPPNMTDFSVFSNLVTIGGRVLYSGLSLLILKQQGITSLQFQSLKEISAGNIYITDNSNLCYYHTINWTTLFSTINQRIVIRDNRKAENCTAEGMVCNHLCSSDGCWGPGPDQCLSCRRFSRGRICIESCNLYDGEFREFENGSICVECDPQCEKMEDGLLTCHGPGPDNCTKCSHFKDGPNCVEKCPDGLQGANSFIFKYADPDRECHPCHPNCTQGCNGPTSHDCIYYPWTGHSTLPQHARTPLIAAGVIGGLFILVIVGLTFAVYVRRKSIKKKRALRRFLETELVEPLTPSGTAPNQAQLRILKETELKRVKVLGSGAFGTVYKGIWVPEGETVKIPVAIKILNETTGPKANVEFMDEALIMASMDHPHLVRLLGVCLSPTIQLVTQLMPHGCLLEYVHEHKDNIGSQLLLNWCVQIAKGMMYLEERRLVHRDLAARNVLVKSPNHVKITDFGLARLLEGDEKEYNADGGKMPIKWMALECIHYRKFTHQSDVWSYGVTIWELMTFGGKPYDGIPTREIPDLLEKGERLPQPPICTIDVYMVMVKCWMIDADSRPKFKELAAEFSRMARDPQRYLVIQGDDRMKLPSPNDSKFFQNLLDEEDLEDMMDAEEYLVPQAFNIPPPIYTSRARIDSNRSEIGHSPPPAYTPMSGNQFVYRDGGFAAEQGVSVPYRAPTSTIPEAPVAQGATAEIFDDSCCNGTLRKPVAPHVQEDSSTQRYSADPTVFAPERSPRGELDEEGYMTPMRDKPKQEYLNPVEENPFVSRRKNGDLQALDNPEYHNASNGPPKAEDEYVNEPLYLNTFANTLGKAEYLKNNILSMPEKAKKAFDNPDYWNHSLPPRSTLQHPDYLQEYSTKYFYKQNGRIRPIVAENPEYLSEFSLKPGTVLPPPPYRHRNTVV
Chain of Epidermal growth factor receptor (P00533 whole entry): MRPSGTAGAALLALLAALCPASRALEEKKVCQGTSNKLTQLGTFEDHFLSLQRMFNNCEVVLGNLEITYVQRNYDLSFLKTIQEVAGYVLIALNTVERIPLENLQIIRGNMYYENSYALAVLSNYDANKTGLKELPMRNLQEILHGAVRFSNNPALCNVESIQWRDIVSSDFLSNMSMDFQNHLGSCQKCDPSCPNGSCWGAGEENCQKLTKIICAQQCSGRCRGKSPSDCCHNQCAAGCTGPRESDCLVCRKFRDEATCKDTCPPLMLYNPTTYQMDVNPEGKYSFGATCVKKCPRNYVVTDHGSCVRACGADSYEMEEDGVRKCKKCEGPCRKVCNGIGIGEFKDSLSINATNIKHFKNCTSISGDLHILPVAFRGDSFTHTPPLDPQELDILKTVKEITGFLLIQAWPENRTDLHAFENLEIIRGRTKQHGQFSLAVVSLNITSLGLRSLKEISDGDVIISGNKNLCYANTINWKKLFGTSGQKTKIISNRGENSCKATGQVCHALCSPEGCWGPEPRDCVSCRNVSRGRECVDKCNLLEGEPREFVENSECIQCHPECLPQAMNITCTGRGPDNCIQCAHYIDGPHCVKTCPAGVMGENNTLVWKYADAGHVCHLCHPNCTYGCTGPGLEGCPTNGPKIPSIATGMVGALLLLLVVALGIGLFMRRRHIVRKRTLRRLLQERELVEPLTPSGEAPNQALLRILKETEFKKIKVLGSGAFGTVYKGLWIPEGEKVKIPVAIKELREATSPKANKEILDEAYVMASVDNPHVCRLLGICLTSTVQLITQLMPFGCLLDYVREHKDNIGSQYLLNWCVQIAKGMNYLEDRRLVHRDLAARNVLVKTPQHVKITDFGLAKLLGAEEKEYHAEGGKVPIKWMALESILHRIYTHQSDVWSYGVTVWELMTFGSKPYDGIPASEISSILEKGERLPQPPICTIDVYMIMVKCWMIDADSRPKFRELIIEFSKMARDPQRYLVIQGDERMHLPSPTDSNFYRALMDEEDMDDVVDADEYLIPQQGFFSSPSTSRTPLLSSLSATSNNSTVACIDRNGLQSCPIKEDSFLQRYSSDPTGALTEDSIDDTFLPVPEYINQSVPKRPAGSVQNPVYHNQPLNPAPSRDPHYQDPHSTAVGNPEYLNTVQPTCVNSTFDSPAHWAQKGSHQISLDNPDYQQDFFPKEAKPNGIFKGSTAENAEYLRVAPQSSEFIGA

In the case of `OCCOCn1ccc2ncnc(Nc3cnc(Oc4cccc(C(F)(F)F)c4)c(Cl)c3)c21` [SYR127063], the results for the half-inhibitory concentration (IC50) in test [1] and in test [2] were 429 nM and above 10000 nM, respectively.
